# Results published in US20180147183A1, “USE OF R-OXIRACETAM IN PHARMACEUTICAL FIELD” (Chongqing Runze Pharmaceutical Co., Ltd., priority 2015, published 2018).
# Marks after values point to notes of the source that are not given here.
# How the values were obtained:
# [1] = test system: Pentetrazol (PTZ) ignited rat epilepsy model; experiment: Pentetrazol (PTZ)-ignited rat epilepsy model; format: in vivo, SD rats; settings: for mortality rate / Numbers of deaths (Number): 10 days
# Method: Rats were injected intraperitoneally with PTZ at a dose of 35 mg/kg (7 mg/ml, 0.5 ml/100 g body weight) for sub-convulsions three times weekly. The animals are weighed before each ip, and observed for behavioral changes after ip. within 1-2 h. Behavioral scoring was carried out according to the revised Racine score. Three consecutive occurrences of seizures of stage IV and above indicate successful ignition.
# The animals successfully ignited were chosen to be grouped. The animals were randomly divided into 4 groups, 8-10/group. […] 3 times of clinical dose were chosen, that is, 500 mg/kg. […] The dosage is 1 ml/100 g, continuous intragastrical administration of 10 days. Specific dose settings are as follows:
# PTZ 35 mg/kg. The animals are observed for behavioral changes within 2 h. Behavioral scoring was carried out according to the revised Racine score, continuous administration for 10 days, grading standards as mentioned above.
# The seizures were recorded daily ip PTZ within 2 h. The seizure levels, latencies, mortality were recorded, and compared with the model control group.
# [2] = test system: lithium chloride-pilocarpine epilepsy model rat; experiment: Lithium chloride-pilocarpine rat epilepsy model, prophylactic administration; format: in vivo, SD rats; settings: 120 mg/kg for 7 days before modeling, 10 rats
# Text: Stages: epileptic seizures evaluation are categorized by Racine Stages
# Stage 0: no signs of any seizure;
# Stage I: staring, head and face slightly trembling;
# Stage II: head nodding or wet dog-like shaking;
# Stage III: forelimb limit convulsions;
# Stage IV: full-body ankylosing convulsions with a standing hind limb;
# Stage V: full-body ankylosing clonic seizures with standing with fell;
# Partial epilepsy seizure occurs when any one of Stage Ito Stage III appears;
# Generalized epilepsy seizure occurs when Stage IV or Stage V appears;
# Status epilepticus (SE) occurs when Stage IV or Stage V lasts 30 minutes.
# The rat epilepsy models were treated with lithium chloride-pilocarpine and used levetiracetam as positive control. The duration of acute seizures of lithium chloride-pilocarpine epilepsy model rat was selected as the observation time, and prophylactic administration was used.
# Animals were randomly divided into 4 groups, 10/group. Levetiracetam was selected as a positive control, 1.5 times of clinical dose were chosen, that is, 150 mg/kg. The clinical dose of an adult is 800 mg/times, twice daily, that is, 1600 mg/60 kg, 26.7 mg/kg. The dose of a rat is converted to 160 mg/kg according to body surface area. R-oxiracetam and levorotatory oxiracetam were selected half of the dose, that is, 80 mg/kg, and 1.5 times is 120 mg/kg. The dose was 1 ml/100 g, and the rats were treated with continuous administration for 7 days. As levetiracetam administration of 1.3 h (80 min), the plasma concentration peak, so we choose the last 80 minutes after the last administration of modeling. As administration of levetiracetam for 1.3 h (80 min), the plasma concentration peak was reached, so each group was selected after the last 80 minutes after the start of modeling.
# Modeling method: After several previous test, the following modeling method was chosen: Animal ip. Lithium chloride 3 mmol/kg (1.5 ml/L) 127 mg/kg (12.7 mg/ml, 1 ml/100 g body weight), 24 h, 37.5 mg/kg pilocarpine three times ip. mg/kg (2.5 mg/ml, 0.5 ml/100 g body weight) at intervals of 10 minutes. […]
smiles,measurement,setting,value
"NC(=O)CN1C[C@H](O)CC1=O [R-oxiracetam, (R)-4-hydroxy-2-oxo-1-pyrrolidineacetamide]",Seizure latency (X ± SD),"[1]; High-dose 360 mg/kg daily, D1",3.83 ± 1.17 m
same,occurrence rates of stage IV or above seizures,"[1]; High-dose 360 mg/kg daily, D1",4/6 (66.7) %
same,Seizure latency (X ± SD),"[1]; High-dose 360 mg/kg daily, D2",5.00 ± 0.89 m
same,occurrence rates of stage IV or above seizures,"[1]; High-dose 360 mg/kg daily, D2",3/6(50.0) %
same,Seizure latency (X ± SD),"[1]; High-dose 360 mg/kg daily, D3",6.17 ± 1.17 m
same,occurrence rates of stage IV or above seizures,"[1]; High-dose 360 mg/kg daily, D3",3/6 (50.0) %
same,Seizure latency (X ± SD),"[1]; High-dose 360 mg/kg daily, D4",6.50 ± 1.05 m
same,occurrence rates of stage IV or above seizures,"[1]; High-dose 360 mg/kg daily, D4",2/6 (33.3) %
same,Seizure latency (X ± SD),"[1]; High-dose 360 mg/kg daily, D5",7.17 ± 0.75 m
same,occurrence rates of stage IV or above seizures,"[1]; High-dose 360 mg/kg daily, D5",1/6 (16.7) %
same,Seizure latency (X ± SD),"[1]; High-dose 360 mg/kg daily, D6",7.83 ± 0.75 m
same,occurrence rates of stage IV or above seizures,"[1]; High-dose 360 mg/kg daily, D6",1/6 (16.7) %
same,Seizure latency (X ± SD),"[1]; High-dose 360 mg/kg daily, D7",8.33 ± 1.03 m
same,occurrence rates of stage IV or above seizures,"[1]; High-dose 360 mg/kg daily, D7",0/6** (0) %
same,Seizure latency (X ± SD),"[1]; High-dose 360 mg/kg daily, D8",8.83 ± 0.98 m
same,occurrence rates of stage IV or above seizures,"[1]; High-dose 360 mg/kg daily, D8",0/6** (0) %
same,Seizure latency (X ± SD),"[1]; High-dose 360 mg/kg daily, D9",8.83 ± 0.75 m
same,occurrence rates of stage IV or above seizures,"[1]; High-dose 360 mg/kg daily, D9",0/6* (0) %
same,Seizure latency (X ± SD),"[1]; High-dose 360 mg/kg daily, D10",9.83 ± 0.75 m
same,occurrence rates of stage IV or above seizures,"[1]; High-dose 360 mg/kg daily, D10",0/6* (0) %
same,mortality rate,[1]; High-dose 360 mg/kg intragastric,0%
same,Numbers of deaths (Number),"[1]; High-dose 360 mg/kg intragastric, 6 animals, 360 mg/kg",No animal died
same,Numbers of deaths (Number),"[1]; High-dose 360 mg/kg intragastric, 6 animals, listed as R-Oxiracetam, 360 mg/kg",0
same,Seizure latency (X ± SD),"[1]; Low-dose 120 mg/kg daily, D1",3.57 ± 1.51 m
same,occurrence rates of stage IV or above seizures,"[1]; Low-dose 120 mg/kg daily, D1",4/7 (57.1) %
same,Seizure latency (X ± SD),"[1]; Low-dose 120 mg/kg daily, D2",4.57 ± 1.72 m
same,occurrence rates of stage IV or above seizures,"[1]; Low-dose 120 mg/kg daily, D2",4/6(66.7) %
same,Seizure latency (X ± SD),"[1]; Low-dose 120 mg/kg daily, D3",5.00 ± 1.15 m
same,occurrence rates of stage IV or above seizures,"[1]; Low-dose 120 mg/kg daily, D3",3/6 (50.0) %
same,Seizure latency (X ± SD),"[1]; Low-dose 120 mg/kg daily, D4",4.86 ± 1.07 m
same,occurrence rates of stage IV or above seizures,"[1]; Low-dose 120 mg/kg daily, D4",2/6 (33.3) %
same,Seizure latency (X ± SD),"[1]; Low-dose 120 mg/kg daily, D5",5.43 ± 0.98 m
same,occurrence rates of stage IV or above seizures,"[1]; Low-dose 120 mg/kg daily, D5",2/6 (33.3) %
same,Seizure latency (X ± SD),"[1]; Low-dose 120 mg/kg daily, D6",6.29 ± 1.11 m
same,occurrence rates of stage IV or above seizures,"[1]; Low-dose 120 mg/kg daily, D6",2/6 (33.3) %
same,Seizure latency (X ± SD),"[1]; Low-dose 120 mg/kg daily, D7",6.86 ± 1.07 m
same,occurrence rates of stage IV or above seizures,"[1]; Low-dose 120 mg/kg daily, D7",1/6* (16.7) %
same,Seizure latency (X ± SD),"[1]; Low-dose 120 mg/kg daily, D8",7.14 ± 1.07 m
same,occurrence rates of stage IV or above seizures,"[1]; Low-dose 120 mg/kg daily, D8",1/6* (16.7) %
same,Seizure latency (X ± SD),"[1]; Low-dose 120 mg/kg daily, D9",7.71 ± 0.76 m
same,occurrence rates of stage IV or above seizures,"[1]; Low-dose 120 mg/kg daily, D9",0/6* (0) %
same,Seizure latency (X ± SD),"[1]; Low-dose 120 mg/kg daily, D10",8.43 ± 0.98 m
same,occurrence rates of stage IV or above seizures,"[1]; Low-dose 120 mg/kg daily, D10",0/6* (0) %
same,mortality rate,[1]; Low-dose 120 mg/kg intragastric,14.3%
same,Numbers of deaths (Number),"[1]; Low-dose 120 mg/kg intragastric, 7 animals, 120 mg/kg",No animal died
same,Numbers of deaths (Number),"[1]; Low-dose 120 mg/kg intragastric, 7 animals, listed as R-Oxiracetam, 120 mg/kg",1
same,Latency Stage I,[2],19.6 ± 4.4 min
same,Latency Stage II,[2],34.7 ± 15.2 min
same,Latency Stage III,[2],40.2 ± 12.1 min
same,Latency Stage IV,[2],35.0 ± 2.8 min
same,Latency Stage V,[2],38.0 ± 2.8 min
same,Number of Deaths,[2],1
same,Number of SE Animals,[2],2
same,Number of seizures Stage I,[2],2.3 ± 1.2 times
same,Number of seizures Stage II,[2],6.8 ± 3.7 times
same,Number of seizures Stage III,[2],6.4 ± 3.6 times
same,Occurrence rate Stage I,[2],10%
same,Occurrence rate Stage II,[2],10%
same,Occurrence rate Stage III,[2],5%
same,Occurrence rate Stage IV,[2],2* %
same,Occurrence rate Stage V,[2],2%
same,duration Stage IV,[2],10.0 ± 1.4 min
same,duration Stage V,[2],26.5 ± 0.7 min
same,number of animals having stage IV,[2]; P<0.05 vs model control,20%
same,mortality rate,[2]; within 1 to 7 days after modeling,10%
